Key:
[1] = target: Replicase polyprotein 1ab (Avian infectious bronchitis virus (strain Beaudette CK), UniProt P0C6Y2); test: FRET protease activity assay
Procedure: (§1) PF-00835231 was evaluated against 3CLpro from a variety of other coronaviruses representing alpha, beta and gamma groups of Coronaviridae, using biochemical F rster Resonance Energy Transfer (FRET) protease activity assays.

[2] = target: Replicase polyprotein 1ab (Human coronavirus HKU1 (isolate N5), UniProt P0C6X4); test: FRET protease activity assay
Procedure: as §1

Replicase polyprotein 1ab (Human coronavirus HKU1 (isolate N5), UniProt P0C6X4), sequence (P0C6X4 3285-3587 limits assumed): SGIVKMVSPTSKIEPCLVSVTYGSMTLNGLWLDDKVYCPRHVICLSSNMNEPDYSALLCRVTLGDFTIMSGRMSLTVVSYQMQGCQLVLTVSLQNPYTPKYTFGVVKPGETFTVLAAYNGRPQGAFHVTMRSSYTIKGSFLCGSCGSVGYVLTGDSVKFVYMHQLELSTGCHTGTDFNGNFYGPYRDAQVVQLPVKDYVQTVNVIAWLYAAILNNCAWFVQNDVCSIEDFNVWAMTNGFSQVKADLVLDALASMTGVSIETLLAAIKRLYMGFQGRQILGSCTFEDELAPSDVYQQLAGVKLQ
Replicase polyprotein 1ab (Avian infectious bronchitis virus (strain Beaudette CK), UniProt P0C6Y2), sequence (P0C6Y2 2780-3086 limits assumed): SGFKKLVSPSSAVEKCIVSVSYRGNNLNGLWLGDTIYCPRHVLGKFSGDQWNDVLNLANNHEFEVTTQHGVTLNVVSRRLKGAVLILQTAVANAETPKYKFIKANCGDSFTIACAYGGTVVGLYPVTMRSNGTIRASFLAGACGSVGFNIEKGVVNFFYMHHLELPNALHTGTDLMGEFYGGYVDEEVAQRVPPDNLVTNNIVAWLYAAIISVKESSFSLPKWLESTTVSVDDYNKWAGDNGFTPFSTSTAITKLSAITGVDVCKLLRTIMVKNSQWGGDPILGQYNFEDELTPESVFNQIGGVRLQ

COc1cccc2[nH]c(C(=O)N[C@@H](CC(C)C)C(=O)N[C@@H](C[C@@H]3CCNC3=O)C(=O)CO)cc12 [WO2005113580-Ex-02]
Ki [1]: 4 nM
Ki [2]: 0.85 nM
